According to patent publication US12319681B2, “Tripartite androgen receptor eliminators, methods and uses thereof” (SPG Therapeutics, Inc., priority 2017, dated 2025):
Like-named read-outs stand apart in the source and are kept apart here.

Columns and labels:
[1] = system: normal Human Adult Primary Epidermal Keratinocyte cell line; test: Keratinocyte cell viability (Trypan Blue exclusion, Example 10); details: keratinocytes, 1.0 nM DHT, 24 hours
Protocol: For the Keratinocyte assay, normal Human Adult Primary Epidermal Keratinocyte cell line (ATCC PCS-200-011) was maintained in EPIUFE® Medium, with 60 μM calcium (Thermo MEPISOOCA) supplemented with Human Keratinocyte Growth Supplement, 100 U/mL penicillin, and 100 μg/mL streptomycin at 37° C. with 5% C02. For experiments, cells were seeded at 70% confluence per well in 100 μL of medium in 96-well plates. […] After 16 hours, medium was removed and replaced with dosing medium.
A 5α-Androstan-17β-ol-3-one (DHT) stock solution was prepared at 1,000× in ethanol. […] Dosing medium was prepared at the time of treatment by serial diluting stock solution into medium. Ethanol concentrations in media never exceeded 0.1%. […] Negative control wells contained 100 μL medium/well with 1 μL of ethanol/mL of medium and an appropriate amount of DMSO. Each plate also contained 1.0 nM DHT with an ARE or without an ARE as a positive control. Cells were incubated 24 hours at 37° C. without CO2.
(§3) To assess for cell viability, cells were first visually examined under a phase-contrast microscope to record cell confluence, morphological changes, and presence of drug crystallization as well as to observe signs of cytotoxity such as, e.g., detachment, vacuolization, membrane degradation, or lack of phase brightness. After microscopic inspection, a Trypan Blue exclusion assay was performed to assess cell viability and cell number for each well. Each well was washed with 0.5 mL volume of PBS. 30 µL of Trypan Blue was added to each well for 5-10 minutes. Total cell number and total viable cell number will be counted from 1 number of fields per well, in triplicate.

[2] = system: normal Human Adult Primary Epidermal Keratinocyte cell line; details: 72 h
Protocol: (§4) For the Keratinocyte assay, normal Human Adult Primary Epidermal Keratinocyte cell line (ATCC PCS-200-011) was maintained in EPIUFE® Medium, with 60 μM calcium (Thermo MEPISOOCA) supplemented with Human Keratinocyte Growth Supplement, 100 U/mL penicillin, and 100 μg/mL streptomycin at 37° C. with 5% C02. For experiments, cells were seeded at 70% confluence per well in 100 μL of medium in 96-well plates. Reverse transfection was done on the cells using Lipofectamine 3000 (Life Technologies) with plasmids according to manufacturer's instructions. Briefly, 0.3 μL transfection reagent per 100 ng DNA were incubated with P3000 reagent and Opti-Mem prior to addition of cells. After 16 hours, medium was removed and replaced with dosing medium.
(§5) Each ARE tested was prepared in DMSO. Dosing medium was prepared at the time of treatment by serial diluting stock solution into medium. Ethanol concentrations in media never exceeded 0.1%. […] Negative control wells contained 100 L medium/well with 1 μL of ethanol/mL of medium and an appropriate amount of DMSO. […] Cells were incubated 72 hours at 37° C. without CO2.

[3] = system: MDA-kb2 mammary gland breast cancer cell line; test: MDA-kb2 cell viability (Trypan Blue exclusion); details: MDA-kb2, 1.0 nM DHT, 24 hours
Protocol: (§6) For the MDA-kb2 assay, MDA-kb2 mammary gland breast cancer cell line was maintained in L-15 media (Gibco) supplemented with 10% FBS, 100 U/mL penicillin, 100 μg/mL streptomycin, and 0.25 μg/mL amphotericin B at 37° C., without CO2. For experiments, cells were plated at 1.0×10^4 cells (50% confluence) per well in 100 μL of medium in 96-well plates. When cells were attached (after 6 hours), medium was removed and replaced with dosing medium containing 10% charcoal stripped FBS.
(§7) A 5α-Androstan-17β-ol-3-one (DHT) stock solution was prepared at 1,000× in ethanol. Each ARE tested was prepared in DMSO. Dosing medium was prepared at the time of treatment by serial diluting stock solution into medium. Ethanol concentrations in media never exceeded 0.1%. […] Negative control wells contained 100 μL medium/well with 1 μL of ethanol/mL of medium and an appropriate amount of DMSO. Each plate also contained 1.0 nM DHT with an ARE or without an ARE as a positive control. Cells were incubated 24 hours at 37° C. without CO2.
as §3

in vitro = details: human
Protocol: as §4, §5

[4] = Hamster Skin Penetration Assays; details: 8-hour time point
Protocol: The applied formulation dose for each sample was 10.0 μL and each sample was run in four replicates. The samples were evaluated at the 8-hour time point for compound absorption in epidermal and dermal layers and penetration into receptor medium.

[5] = system: MDA-kb2 mammary gland breast cancer cell line; details: human, 24 h
Protocol: as §6, §7, §3

androgen receptor (AR) [6] = target: androgen receptor (AR) (Homo sapiens, UniProt P10275); test: MDA-kb2 AR luciferase reporter gene assay (1.0 nM DHT); format: cell-based; details: read-out: Gene Activity Reduction
Protocol: This example illustrates how to determine the inhibitory activity of an ARE disclosed herein using a cell-based androgen receptor transcriptional reporter assay using an engineered cell line.
(§1) Each ARE tested was prepared in DMSO. […] Ethanol concentrations in media never exceeded 0.1%.
(§2) To assess ARE-mediated inhibition, an AR luciferase assay was performed. After washing cells with 1×PBS, 20 μL lysis buffer (25 mM Tris/phosphate, 4 mM EGTA, 1% Triton, 10% glycerol, 2 mM DTT) was added per well, incubated for 5 minutes with gentle shaking and store at −80° C. On the day of assay, the plates were thawed to ambient temperature and 80 μL of assay buffer (25 mM glycylglycine, 15 mM MgCl2. 5 mM ATP, 0.1 mg/ml BSA) was added to each well. Plates are then processed on a microplate reader (POLARstar Omega) by injecting 100 μL of 1 mM D-luciferin per well, followed by chemiluminescence measurement of 3 seconds at onset of injection. Luciferase activity was determined, measured, and normalized to Relative Light Units (RLU). AR reporter gene activity reduction values were calculated as follows: AR reporter gene activity=1−(average signal (treatment group)/average signal (treatment group without drug).

androgen receptor (AR) [7] = target: T1, androgen receptor (AR) (Homo sapiens, UniProt P10275); test: Keratinocyte AR protein level ELISA (Example 10); format: cell-based; details: 24 h, keratinocytes, AR protein level by ELISA, read-out: AR Reduction
T1 construct: human keratinocytes transfected with an AR luciferase reporter gene; endogenous in cells; host or cells: normal human adult primary epidermal keratinocytes (ATCC PCS-200-011)
T1 sequence (P10275 1-920): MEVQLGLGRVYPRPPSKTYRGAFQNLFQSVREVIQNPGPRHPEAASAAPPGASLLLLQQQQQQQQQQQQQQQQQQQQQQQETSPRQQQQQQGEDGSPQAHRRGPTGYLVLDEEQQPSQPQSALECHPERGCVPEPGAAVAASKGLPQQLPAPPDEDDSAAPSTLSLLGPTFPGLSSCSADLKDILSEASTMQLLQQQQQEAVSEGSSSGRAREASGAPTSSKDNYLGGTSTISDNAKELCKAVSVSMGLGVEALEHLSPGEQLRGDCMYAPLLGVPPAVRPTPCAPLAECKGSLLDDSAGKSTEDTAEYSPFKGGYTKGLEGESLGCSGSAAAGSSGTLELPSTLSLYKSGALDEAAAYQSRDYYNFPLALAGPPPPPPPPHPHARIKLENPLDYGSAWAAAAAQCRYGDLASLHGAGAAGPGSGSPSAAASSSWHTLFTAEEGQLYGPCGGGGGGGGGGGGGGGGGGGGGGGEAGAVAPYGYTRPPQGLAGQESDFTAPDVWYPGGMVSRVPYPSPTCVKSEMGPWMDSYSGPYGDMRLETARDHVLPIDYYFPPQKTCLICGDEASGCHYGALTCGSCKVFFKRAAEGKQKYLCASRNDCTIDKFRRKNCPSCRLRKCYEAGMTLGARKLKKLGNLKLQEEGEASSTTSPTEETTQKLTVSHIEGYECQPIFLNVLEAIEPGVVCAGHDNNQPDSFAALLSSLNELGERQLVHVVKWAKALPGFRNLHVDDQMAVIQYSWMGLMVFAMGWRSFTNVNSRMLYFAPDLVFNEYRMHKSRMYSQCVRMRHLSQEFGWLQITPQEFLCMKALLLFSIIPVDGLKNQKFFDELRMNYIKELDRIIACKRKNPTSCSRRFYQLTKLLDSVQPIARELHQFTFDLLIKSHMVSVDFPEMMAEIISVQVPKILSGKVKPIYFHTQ
Protocol: as §1
To assess levels of AR, an ELISA was performed.

[8] = system: normal Human Adult Primary Epidermal Keratinocyte cell line; test: Keratinocyte Cell Viability Assay (Example 11, 72 hours); details: keratinocytes, 72 hours, 0 μM = 100
Protocol: as §4, §5

[9] = as above; details: human
Protocol: as §4, §5

androgen receptor (AR) [10] = target: T1, androgen receptor (AR); test: Keratinocyte AR luciferase reporter gene assay (Example 10); format: cell-based; details: keratinocytes, 1.0 nM DHT, 24 hours, read-out: Gene Activity Reduction
Protocol: as §1, §2

androgen receptor (AR) [11] = target: T1, androgen receptor (AR); test: Keratinocyte AR Reporter Gene Assay, 24 and 72 hours continuous exposure (Example 12); format: cell-based; details: keratinocytes
Protocol: as §2
This example illustrates how to determine the inhibitory activity of an ARE disclosed herein using a cell-based androgen receptor transcriptional reporter assay using primary human keratinocytes.
Results were analyzed for IC50 and IC90 values in GraphPad Prism using a four-parameter logistic curve equation. Bottom constraints were set to 1 (level of uninduced control).

In the case of `CC(=O)N1CCN(c2ccc(OC[C@H]3CO[C@](Cn4ccnc4)(c4ccc(Cl)cc4Cl)O3)cc2)CC1` (racemic) [SPG-002, Ketoconazole], the “Cell Viability” value ([1]; 0.1 μM) is reported as 95%, the “Cell Viability” value ([1]; 3.0 μM) is reported as 94% and the “Cell Viability” value ([1]; 10 μM) is reported as 95%. For the same compound, the “Cell Viability” value ([2]; 0.62 μM) was 93.61 ± 3.38, the “Cell Viability” value ([2]; 1.85 μM) was 90.96 ± 2.34 and the “Cell Viability” value ([2]; 5.56 μM) was 71.22 ± 0.88. The “Cell Viability” value ([2]; 16.67 μM) was 41.59 ± 1.76, the “Cell Viability” value ([2]; 50 μM) was 7.29 ± 12.16 and the “Cell Viability” value ([3]; 0.1 μM) was 97%. For the same compound, the IC50 at 72 h (in vitro) was 11 µM.

For `O=C(Nc1ccc([N+](=O)[O-])cc1Cl)c1cc(Cl)ccc1O` [Niclosamide], the “Cell Viability” value ([2]; 0.62 μM) was 34.13 ± 2.99, the “Cell Viability” value ([2]; 1.85 μM) was 30.65 ± 5.98 and the “Cell Viability” value ([2]; 5.56 μM) was 25.07 ± 3.81. For the same compound, the “Cell Viability” value ([2]; 16.67 μM) was 15.93 ± 7.45, the “Cell Viability” value ([2]; 50 μM) was 0.20 ± 6.09 and the IC50 at 72 h (in vitro) was < 0.2 µM.

With `CC(=O)S[C@@H]1CC2=CC(=O)CC[C@]2(C)[C@H]2CC[C@@]3(C)[C@@H](CC[C@@]34CCC(=O)O4)[C@H]12` [SPG-001, Spironolactone] the “Cell Viability” value ([1]; 0.1 μM) was 92%, the “Cell Viability” value ([1]; 1.0 μM) was 94% and the “Cell Viability” value ([1]; 3.0 μM) was 92%. For the same compound, the “Cell Viability” value ([1]; 10 μM) was 95%, the “Cell Viability” value ([2]; 0.62 μM) was 113.05 ± 1.09 and the “Cell Viability” value ([2]; 1.85 μM) was 108.09 ± 1.79. For the same compound, the “Cell Viability” value ([2]; 5.56 μM) was 99.27 ± 1.50, the “Cell Viability” value ([2]; 16.67 μM) was 82.73 ± 1.34 and the “Cell Viability” value ([2]; 50 μM) was 58.33 ± 2.39. For the same compound, the “Cell Viability” value ([3]; 0.1 μM) was 99%, the “Cell Viability” value ([3]; 1.0 μM) was 98% and the “Cell Viability” value ([3]; 3.0 μM) was 98%. The “Cell Viability” value ([3]; 10 μM) was 98%, the “skin absorption (in words)” value [4] was “good amount” and the “skin penetration (in words)” value [4] was “good amount”. It also gave an IC50 at 72 h (in vitro) of 50 µM.

In the case of `CC12CCC(=O)C=C1C[C@@H](SC(=O)COCCOCCNC(=O)CC13CC4CC(CC(C4)C1)C3)C1C2CCC2(C)C1CC[C@@]21CCC(=O)O1` (stereo partly shown) [SPG-004], the “Cell Viability” value ([5]; 0.1 μM) is reported as 97%, the “Cell Viability” value ([5]; 1 μM) is reported as 98% and the “Cell Viability” value ([5]; 3 μM) is reported as 99%. The “Cell Viability” value ([5]; 10 μM) was 98%, the inhibition at 0.1 µM (androgen receptor (AR) [6]; MDA-kb2, 24 h) was 11% and the inhibition at 1 µM (androgen receptor (AR) [6]; MDA-kb2, 24 h) was 22%. The inhibition at 3 µM (androgen receptor (AR) [6]; MDA-kb2, 24 h) was 36% and the inhibition at 10 µM (androgen receptor (AR) [6]; MDA-kb2, 24 h) was 42%.

Work on `O=C(CC12CC3CC(CC(C3)C1)C2)NCCOCCOCC(=O)N1CCN(c2ccc(OC[C@H]3CO[C@](Cn4ccnc4)(c4ccc(Cl)cc4Cl)O3)cc2)CC1` [SPG-005] yielded an inhibition at 0.1 µM (androgen receptor (AR) [7]) of 12%, an inhibition at 1 µM (androgen receptor (AR) [7]) of 19% and an inhibition at 3 µM (androgen receptor (AR) [7]) of 23%. The inhibition at 10 µM (androgen receptor (AR) [7]) was 65%, the “Cell Viability” value ([8]; 0.62 μM) was 77.01 ± 0.64 and the “Cell Viability” value ([8]; 1.85 μM) was 62.57 ± 2.06. The “Cell Viability” value ([8]; 5.56 μM) was 1.98 ± 8.39, the “Cell Viability” value ([8]; 16.67 μM) was 0.11 ± 1.77 and the “Cell Viability” value ([8]; 50 μM) was 0.09 ± 6.41. The “Cell Viability” value ([8]; […]) was 93.72 ± 1.69, the IC50 at 72 h [9] was 2000 nM and the “Cell Viability” value ([1]; 0.1 μM) was 94%. The “Cell Viability” value ([1]; 1.0 μM) was 92%, the “Cell Viability” value ([1]; 3.0 μM) was 93% and the “Cell Viability” value ([1]; 10 μM) was 94%. For the same compound, the “Cell Viability” value ([3]; 0.1 μM) was 98%, the “Cell Viability” value ([3]; 1.0 μM) was 98% and the “Cell Viability” value ([3]; 3.0 μM) was 98%. The “Cell Viability” value ([3]; 10 μM) was 98%, the inhibition at 0.1 µM (androgen receptor (AR) [10]) was 21% and the inhibition at 1 µM (androgen receptor (AR) [10]) was 29%. The inhibition at 3 µM (androgen receptor (AR) [10]) was 31%, the inhibition at 10 µM (androgen receptor (AR) [10]) was 90% and the inhibition at 0.1 µM (androgen receptor (AR) [6]; 0.1 μM, MDA-kb2, 1.0 nM DHT, 24 hours) was 9%. It also gave an inhibition at 1 µM (androgen receptor (AR) [6]; 1.0 μM, MDA-kb2, 1.0 nM DHT, 24 hours) of 14%, an inhibition at 3 µM (androgen receptor (AR) [6]; 3.0 μM, MDA-kb2, 1.0 nM DHT, 24 hours) of 18% and an inhibition at 10 µM (androgen receptor (AR) [6]; 10 μM, MDA-kb2, 1.0 nM DHT, 24 hours) of 80%.

In the case of `O=C(CC12CC3CC(CC(C3)C1)C2)N1CCN(c2ccc(OC[C@H]3CO[C@](Cn4ccnc4)(c4ccc(Cl)cc4Cl)O3)cc2)CC1` [SPG-006], the inhibition at 0.1 µM (androgen receptor (AR) [7]) is reported as 1%, the inhibition at 1 µM (androgen receptor (AR) [7]) is reported as 5% and the inhibition at 3 µM (androgen receptor (AR) [7]) is reported as 20%. The inhibition at 10 µM (androgen receptor (AR) [7]) was 37%, the “Cell Viability” value ([1]; 0.1 μM) was 93% and the “Cell Viability” value ([1]; 1.0 μM) was 94%. The “Cell Viability” value ([1]; 3.0 μM) was 94%, the “Cell Viability” value ([1]; 10 μM) was 94% and the inhibition at 0.1 µM (androgen receptor (AR) [10]) was 8%. For the same compound, the inhibition at 1 µM (androgen receptor (AR) [10]) was 19%, the inhibition at 3 µM (androgen receptor (AR) [10]) was 28% and the inhibition at 10 µM (androgen receptor (AR) [10]) was 48%.

In the case of `Cc1ncsc1-c1ccc([C@H](C)NC(=O)[C@@H]2C[C@@H](O)CN2C(=O)[C@@H](NC(=O)COCC(=O)N2CCN(c3ccc(OC[C@H]4CO[C@](Cn5ccnc5)(c5ccc(Cl)cc5Cl)O4)cc3)CC2)C(C)(C)C)cc1` [SPG-007], the IC50 (androgen receptor (AR) [11]; 24-hr Treatment) is reported as 4580 nM, the IC90 (androgen receptor (AR) [11]; 24-hr Treatment) is reported as 73.8 µM and the “Maximum Inhibition” value (androgen receptor (AR) [11]; 24-hr Treatment) is reported as 67%. The IC50 (androgen receptor (AR) [11]; 72-hr Treatment) was 1500 nM, the IC90 (androgen receptor (AR) [11]; 72-hr Treatment) was 22.2 µM and the “Maximum Inhibition” value (androgen receptor (AR) [11]; 72-hr Treatment) was 80%.

For `Cc1ncsc1-c1ccc([C@H](C)NC(=O)[C@@H]2C[C@@H](O)CN2C(=O)[C@@H](NC(=O)COCCOCCOCC(=O)N2CCN(c3ccc(OC[C@H]4CO[C@](Cn5ccnc5)(c5ccc(Cl)cc5Cl)O4)cc3)CC2)C(C)(C)C)cc1` [SPG-008], the IC50 (androgen receptor (AR) [11]; 24-hr Treatment) was 3310 nM, the IC90 (androgen receptor (AR) [11]; 24-hr Treatment) was 8.4 µM and the “Maximum Inhibition” value (androgen receptor (AR) [11]; 24-hr Treatment) was 94%. The IC50 (androgen receptor (AR) [11]; 72-hr Treatment) was 2380 nM, the IC90 (androgen receptor (AR) [11]; 72-hr Treatment) was 7.86 µM and the “Maximum Inhibition” value (androgen receptor (AR) [11]; 72-hr Treatment) was 94%.
